# Entries after “also recorded” stand apart in the source; their conditions may differ.
# Experiments:
# [1] = test system: IL-17 produced from Th17 cells (Th17세포); assay: IL-17 production by mouse splenocytes under Th17 differentiation conditions (ELISA of culture medium, 3 days); type: cell-based; conditions: Th17 conditions (anti-CD3, anti-CD28, anti-IFNr, anti-IL-4, TGF beta), EGCG 0, 1, 10, 50 uM, Fig. 1
# IL-17 mRNA = assay: RT-PCR of IL-17 mRNA in mouse splenocytes under Th17 differentiation conditions; type: cell-based; conditions: EGCG 0, 1, 10, 50 ng/ml, Fig. 2a
# Foxp3 mRNA = assay: RT-PCR of Foxp3 mRNA in mouse splenocytes under Th17 differentiation conditions (Treg activation); type: cell-based; conditions: EGCG 0, 1, 10, 50 ng/ml, Fig. 2b
# Treg cells (Treg 세포) [2] = assay: Treg cells in spleen of lupus syndrome mice, immunostaining (CD4, CD25, Foxp3) and confocal microscopy; type: in vivo, mouse; conditions: EGCG 10uM, intraperitoneal, 10 injections, Fig. 3
# Th17 cells (Th17 세포) = assay: Th17 cells in spleen of lupus syndrome mice, immunostaining (CD4, IL-17) and confocal microscopy; type: in vivo, mouse; conditions: EGCG 10uM, intraperitoneal, 10 injections, confocal microscopy, Fig. 3
# Treg cells (Treg 세포) [3] = assay: Treg population in splenocytes of lupus syndrome mice under Treg differentiation conditions, FACS (CD4, CD25, Foxp3); type: cell-based; conditions: lupus mouse splenocytes, anti-CD3 2 ug/ml + TGF beta 5ng/ml, EGCG 10ng/ml, 72 h
smiles,measurement,setting,value
"O=C(O[C@@H]1Cc2c(O)cc(O)cc2O[C@@H]1c1cc(O)c(O)c(O)c1)c1cc(O)c(O)c(O)c1 [EGCG, (-)-epigallocatechin gallate]",amount of IL-17 cytokine produced,[1],EGCG를 처리하지 않은 군에 비해 현저하게 감소; also recorded: EGCG 농도 의존적으로 IL-17의 생성이 감소
same,IL-17 expression (mRNA),IL-17 mRNA,농도 의존적으로 점점 감소
same,Foxp3 expression (mRNA),Foxp3 mRNA,EGCG를 처리하지 않은 군에 비해 현저하게 증가; also recorded: 농도 의존적으로 점점 증가
same,Treg cell activation in spleen,Treg cells (Treg 세포) [2]; CD4/CD25 co-expression,비장에서 Treg 세포가 활성화 되었음
same,"Foxp3 expression in nucleus, compared with control","Treg cells (Treg 세포) [2]; spleen, confocal microscopy",대조군에 비해 많이 발현
same,"IL-17 expression (degree of Th17 cell differentiation), compared with control",Th17 cells (Th17 세포),EGCG를 처리하지 않은 대조군이 처리한 군에 비해 녹색의 IL-17이 더 많이 발현
same,fold induction at 0.01 µg/mL,"Treg cells (Treg 세포) [3]; Splenocyte, printed 'about 10-fold or more', read-out: increase of Treg cells compared with untreated group",≥ 10
same,Foxp3 expression,"Treg cells (Treg 세포) [3]; untreated control 2.69, Fig. 4",21.57

# — patent publication KR20110128542A, “Egcg를 유효성분으로 함유하는 쇼그렌 증후군, 베체트 증후군, 강직성척추염 또는 루프스의 예방 또는 치료용 조성물” (가톨릭대학교 산학협력단, priority 2010, dated 2011)
